Test [1] deals with T1, Jupiter microtubule-associated homolog 2 (JPT2) (Homo sapiens, UniProt Q9H910).
T1 sequence (Q9H910 1-218 isoform Q9H910-3): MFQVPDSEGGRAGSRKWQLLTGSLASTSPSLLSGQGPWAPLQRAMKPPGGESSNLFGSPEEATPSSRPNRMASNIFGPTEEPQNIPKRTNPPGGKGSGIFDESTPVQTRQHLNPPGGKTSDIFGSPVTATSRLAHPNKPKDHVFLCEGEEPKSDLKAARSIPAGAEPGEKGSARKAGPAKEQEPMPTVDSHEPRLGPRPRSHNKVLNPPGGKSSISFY
The test is described as follows: […]-NAADP radioligand filtration binding, displacement by unlabeled NAADP.

Test [2] has as its target T1, Jupiter microtubule-associated homolog 2 (JPT2). The test is described as follows: […]-NAADP radioligand filtration binding, displacement by HPLC-purified NADP.

SMILES strings stand for the structures.

As to `Nc1ncnc2c1ncn2[C@@H]1O[C@H](COP(=O)(O)OP(=O)(O)OC[C@H]2O[C@@H]([n+]3cccc(C(=O)O)c3)[C@H](O)[C@@H]2O)[C@@H](O)[C@H]1OP(=O)(O)O` [NAADP], the IC50 (as a rule, the concentration at which inhibition is half-maximal) in test [1] came out at 20 ± 3.6 nM.
`NC(=O)c1ccc[n+]([C@@H]2O[C@H](COP(=O)(O)OP(=O)(O)OC[C@H]3O[C@@H](n4cnc5c(N)ncnc54)[C@H](OP(=O)(O)O)[C@@H]3O)[C@@H](O)[C@H]2O)c1` [NADP] showed an IC50 in test [2] of 334 ± 76 nM.

Source of the values: PMC8315109 (Science signaling, 2021).
